Data set [1] can be described thus: Antagonist activity at serotonin receptor in rat aortic strips assessed as receptor mediated anti-serotoninergic activity. As to conditions: read-out: pA2 (converted).
Data set [2] is described as follows: Antagonist activity at alpha-adrenergic receptor in rat aortic strips assessed as receptor mediated adrenolytic activity. As to conditions: read-out: pA2 (converted).
The nature of data set [3]: Toxicity in Artemia salina assessed as mortality at 10 ug/ml measured after 24 hrs by microscopic analysis. Particulars: at 10 µg/mL, read-out: Activity.
In data set [4] the test system is Staphylococcus epidermidis. The experiment in a line: Antibacterial activity against Staphylococcus epidermidis assessed as inhibition of bacterial growth incubated for 18 to 24 hrs. It is filed as functional. As to conditions: time 18-24 hrs.
Data set [5] in a line: Antioxidant activity assessed as free radical scavenging activity incubated for 30 mins by DPPH assay. It is filed as functional.
Another data set deals with Proteus mirabilis. Nature of the data set: Antibacterial activity against Proteus mirabilis assessed as inhibition of bacterial growth incubated for 18 to 24 hrs. It is filed as functional. Particulars: time 18-24 hrs.
Data set [6] relates to Lactiplantibacillus plantarum. Nature of the data set: Antibacterial activity against Lactobacillus plantarum assessed as inhibition of bacterial growth incubated for 18 to 24 hrs. The format is functional. Particulars: time 18-24 hrs.
For the next data set, the system named is L1210. The experiment in a line: Cytotoxicity against mouse L1210 cells assessed as cell growth inhibition. The format is functional, cell-based.
A further data set concerns KB. Nature of the data set: Cytotoxicity against human KB cells assessed as cell growth inhibition. It is filed as functional, cell-based.
The test system of the next data set is Plasmodium berghei. Nature of the data set: Antiplasmodial activity against Plasmodium berghei infected in ip dosed Swiss albino mouse assessed as growth inhibition at asexual erythrocytic stage. Also on record: scale not given: the % may be the effect or the level left. The format is functional.
Data set [7] deals with Staphylococcus aureus. The experiment in a line: Antibacterial activity against Staphylococcus aureus assessed as bacterial growth inhibition. The format is functional.
For data set [8], the system named is Mycobacterium tuberculosis. The experiment in a line: Antimycobacterial activity against Mycobacterium tuberculosis H37Rv assessed as inhibition of bacterial growth. It is filed as functional.
Data set [9] is described as follows: Cytotoxicity against multidrug resistant human VJ300 cells expressing P-gp assessed as cell growth inhibition measured after 72 hrs by MTT assay. The format is functional, cell-based. Particulars: VJ-300, 72 h.
In another data set the test system is B16. The experiment in a line: Cytotoxicity against mouse B16 cells assessed as cell growth inhibition measured after 72 hrs by MTT assay. It is filed as functional, cell-based. Particulars: B16, 72 h.
In a further data set the test system is SAOS-2. Nature of the data set: Cytotoxicity against human SAOS-2 cells assessed as cell growth inhibition incubated for 48 hrs by microplate reader based analysis. It is filed as functional. As to conditions: SAOS-2, 48 h.
Data set [10] in a line: Cytotoxicity against human SOSP-9607 cells assessed as cell growth inhibition incubated for 48 hrs by microplate reader based analysis. Particulars: SOSP-9607, 48 h. It is filed as functional.
A further data set has as its system U2OS. Nature of the data set: Cytotoxicity against human U2OS cells assessed as cell growth inhibition incubated for 48 hrs by microplate reader based analysis. The format is functional.
A further data set concerns MG-63. Nature of the data set: Cytotoxicity against human MG-63 cells assessed as cell growth inhibition incubated for 48 hrs by microplate reader based analysis. As to conditions: MG-63, 48 h. The format is functional.
The test system of data set [11] is Plasmodium falciparum. Nature of the data set: Antiplasmodial activity against Plasmodium falciparum 3D7 infected in human erythrocytes assessed as cell growth inhibition incubated for 72 hrs by parasite lactate dehydrogenase assay. The format is functional, organism-based. Particulars: 3D7, 72 h.
The target in a further data set is Cholinesterase (Homo sapiens, UniProt P06276). Nature of the data set: Inhibition of human BChE.
Cholinesterase, sequence (P06276 whole entry): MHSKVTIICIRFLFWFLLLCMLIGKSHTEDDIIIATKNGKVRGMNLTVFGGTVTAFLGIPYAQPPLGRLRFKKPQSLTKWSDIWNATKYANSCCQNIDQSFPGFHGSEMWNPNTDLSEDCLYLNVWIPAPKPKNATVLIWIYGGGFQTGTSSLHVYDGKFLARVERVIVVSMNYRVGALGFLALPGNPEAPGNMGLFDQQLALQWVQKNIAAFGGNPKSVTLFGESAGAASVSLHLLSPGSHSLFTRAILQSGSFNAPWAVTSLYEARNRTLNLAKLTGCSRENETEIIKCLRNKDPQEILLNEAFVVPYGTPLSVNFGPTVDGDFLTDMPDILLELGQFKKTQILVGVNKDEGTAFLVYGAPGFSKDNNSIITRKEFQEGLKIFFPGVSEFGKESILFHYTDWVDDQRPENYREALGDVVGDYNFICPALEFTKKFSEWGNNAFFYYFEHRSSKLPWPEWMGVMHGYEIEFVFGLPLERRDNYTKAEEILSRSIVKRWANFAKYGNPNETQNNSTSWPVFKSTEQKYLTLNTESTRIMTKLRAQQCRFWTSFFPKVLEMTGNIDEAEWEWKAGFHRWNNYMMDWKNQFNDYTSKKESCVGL
The nature of data set [12]: Toxicity in Artemia salina assessed as mortality measured after 24 hrs by microscopic analysis. Particulars: read-out: Activity.
Data set [13] has as its system Staphylococcus aureus. Nature of the data set: Antibacterial activity against Staphylococcus aureus assessed as zone of inhibition measured after 16 hrs by disk diffusion assay. It is filed as functional.
Data set [14] deals with Plasmodium falciparum. The experiment in a line: Antiplasmodial activity against chloroquine sensitive Plasmodium falciparum D6 assessed as cell growth inhibition. It is filed as functional, organism-based.
Data set [15] relates to Plasmodium falciparum. The experiment in a line: Antiplasmodial activity against chloroquine sensitive Plasmodium falciparum W2 assessed as cell growth inhibition. It is filed as functional, organism-based.
For the next data set, the system named is P388. The experiment in a line: Cytotoxicity against mouse P388 cells assessed as effective dose. The format is functional. As to conditions: read-out: ED50 (the source's name).
A short description of data set [16]: Displacement of [3H]-naloxone from opiate receptor in rat cortical brain membrane assessed as inhibition constant incubated for 30 mins by liquid scintillation counter analysis. The format is cell membranes.
The target of data set [17] is Xanthine dehydrogenase/oxidase (Homo sapiens, UniProt P47989). The experiment in a line: Inhibition of xanthine oxidase (unknown origin) at 10 uM using xanthine as substrate.
Xanthine dehydrogenase/oxidase, sequence (P47989 whole entry): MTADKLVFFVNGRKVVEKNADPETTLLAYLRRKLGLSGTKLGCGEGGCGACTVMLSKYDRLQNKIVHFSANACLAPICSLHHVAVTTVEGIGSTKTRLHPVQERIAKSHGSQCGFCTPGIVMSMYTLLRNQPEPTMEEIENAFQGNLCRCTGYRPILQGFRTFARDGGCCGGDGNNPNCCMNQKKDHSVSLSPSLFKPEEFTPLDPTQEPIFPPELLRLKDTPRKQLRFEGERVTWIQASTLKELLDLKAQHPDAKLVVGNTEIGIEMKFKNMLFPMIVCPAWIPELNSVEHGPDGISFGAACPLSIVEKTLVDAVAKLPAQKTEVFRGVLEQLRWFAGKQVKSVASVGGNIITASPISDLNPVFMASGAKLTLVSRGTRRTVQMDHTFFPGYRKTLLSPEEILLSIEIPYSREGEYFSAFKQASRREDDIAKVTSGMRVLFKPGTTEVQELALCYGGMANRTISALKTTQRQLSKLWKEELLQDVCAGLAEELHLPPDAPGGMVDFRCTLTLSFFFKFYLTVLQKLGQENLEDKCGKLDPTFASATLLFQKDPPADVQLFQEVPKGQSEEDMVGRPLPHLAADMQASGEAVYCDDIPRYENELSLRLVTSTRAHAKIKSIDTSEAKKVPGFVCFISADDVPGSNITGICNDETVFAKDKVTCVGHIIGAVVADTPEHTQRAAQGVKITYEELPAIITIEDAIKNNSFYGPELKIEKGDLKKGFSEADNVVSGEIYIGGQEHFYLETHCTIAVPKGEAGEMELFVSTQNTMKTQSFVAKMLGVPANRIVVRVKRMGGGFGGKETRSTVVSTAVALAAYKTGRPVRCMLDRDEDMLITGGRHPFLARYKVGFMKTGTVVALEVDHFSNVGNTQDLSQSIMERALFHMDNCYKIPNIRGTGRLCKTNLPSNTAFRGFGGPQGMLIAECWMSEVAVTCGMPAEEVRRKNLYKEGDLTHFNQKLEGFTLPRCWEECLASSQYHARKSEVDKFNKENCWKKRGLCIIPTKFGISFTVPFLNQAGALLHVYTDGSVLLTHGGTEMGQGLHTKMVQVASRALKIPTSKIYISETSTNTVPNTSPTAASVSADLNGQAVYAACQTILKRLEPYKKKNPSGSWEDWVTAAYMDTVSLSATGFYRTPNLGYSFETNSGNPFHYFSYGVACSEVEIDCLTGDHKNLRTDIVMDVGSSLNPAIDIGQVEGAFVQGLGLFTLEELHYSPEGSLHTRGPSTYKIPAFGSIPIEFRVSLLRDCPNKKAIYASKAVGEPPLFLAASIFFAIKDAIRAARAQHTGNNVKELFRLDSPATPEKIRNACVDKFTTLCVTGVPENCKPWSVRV
Data set [18] addresses Replicase polyprotein 1ab (Severe acute respiratory syndrome coronavirus 2) (UniProt P0DTD1). The experiment in a line: Binding affinity to SARS-CoV-2 3C-like protease assessed as change in gibbs free energy.

pIC50, pKi: −log10 of the molar value. Values after ≈ are worked out from the molar mass of the structure shown. Some results are limits rather than exact numbers.

Take `CN1CCc2ccccc2-c2cc(O)c(O)cc2C1`: the values for the Kb in [1] and in data set [2] were 3.02 µM and 0.02 µM, respectively.
In the case of `COc1cc([C@H]2Oc3ccc4[nH]cc5c4c3[C@H]2C(=O)NCC5=O)ccc1O`, in [3], the mortality at 24 h, 10 ug/ml is 90%.
With `COc1cc([C@H]2Oc3ccc4[nH]cc5c4c3[C@H]2C(=O)NCC5)ccc1O`, the MIC was found to be 10 µg/mL (≈ 28.5 µM) in data set [4], 1 µg/mL (≈ 2.85 µM) in the data set on Proteus mirabilis and 1 µg/mL (≈ 2.85 µM) in [6]. Besides, in [5], the IC50 is on record as 3.2 10^-3mg/ml.
Regarding `CC1CC2C[C@]34C(=O)CCCN3CCC[C@@]2(O)C(=O)C14` (some centres undefined), the IC50 with L1210 and with KB was above 10 µg/mL each time.
`O=CC1=C[C@@]2(O)CC/C=C\CCCCN3CC[C@@H]1[C@]1(C[C@@H]4/C=C\CCCCN4[C@H]12)C3` [IRCINAL]: the IC50 stood at 1.4 µg/mL (≈ 3.41 µM) in the data set with L1210 and 4.8 µg/mL (≈ 11.7 µM) in the data set on KB.
Regarding `O[C@]12C=C(c3nccc4c3[nH]c3ccccc34)[C@@H]3CCN(CCCC/C=C\CC1)C[C@@]31C[C@@H]3/C=C\CCCCN3[C@H]12` [MANZAMINE A], in the data set on Plasmodium berghei, the Activity was 90%. Further, the minimal inhibitory concentration (MIC) with Staphylococcus aureus [7] was 6.3 µg/mL (≈ 11.5 µM). The MIC50 in [8] came to 1.5 µg/mL (≈ 2.73 µM).
With `C=C1C=C[C@@]23CC[C@@]45C(C2)[C@]4(CCN13)c1cc(OC)ccc1N5C(=O)OC`, the IC50 was 4.6 µg/mL (≈ 12.6 µM) in [9] and 2.8 µg/mL (≈ 7.68 µM) with B16.
Regarding `COC(=O)C1=C2Nc3c(OC)cccc3[C@]23CC[N+]2(C)C[C@H](C(C)=O)[C@H]1C[C@H]32` (some centres undefined), the pIC50 (in the data set on SAOS-2; in [10]; in the data set on U2OS; in the data set on MG-63) was 5.04 in each case.
On to `COc1cc([C@H]2Oc3ccc4[nH]cc5c4c3[C@@H]2C(=O)NCC5)ccc1OC(=O)C(C)(C)C`, for which, in the data set on Plasmodium falciparum [11], the pIC50 was 3.91.
Consider `COc1cc2c(cc1OC)-c1ccccc1CCN(C)C2`, for which the Kb in data set [1] was 0.102 µM; in data set [2], 0.107 µM.
At Cholinesterase, `COC(=O)[C@]12COCC[C@@H]3[C@H](c4c1[nH]c1ccccc41)N(C)CC[C@@H]32` [UNDULIFOLINE] had a pIC50 of 4.55.
`COc1cc([C@H]2Oc3ccc4[nH]cc5c4c3[C@@H]2C(=O)NCC5)ccc1O`: in data set [12], the mortality at 24 h amounted to 90%. In the data set with Staphylococcus aureus [13], the “diameter of the inhibition zone (DIZ)” value amounted to 19 mm. For the same compound, the IC50 in the data set on Plasmodium falciparum [14] and with Plasmodium falciparum [15] was above 10 µg/mL throughout.
Consider `C=C1c2[nH]c3ccccc3c2CN2CC[C@H]1/C(=C\C)C2` [APPARICINE], for which the EC50 in the data set on P388 came to 3.8 µg/mL (≈ 14.4 µM). For the same compound, the pKi in data set [16] is 5.58. This compound showed a pIC50 in [17] of 6.19.
For `O=C1NCCc2c[nH]c3ccc4c(c23)[C@H]1[C@@H](c1ccc2c(c1)OCO2)O4`, the deltaG in data set [18] is -9.1 kcal/mol. Further, the IC50 in the data set with Plasmodium falciparum [14] worked out at 3.93 µg/mL (≈ 11.3 µM); in the data set with Plasmodium falciparum [15], 4.41 µg/mL (≈ 12.7 µM).

The values are drawn from ChEMBL document CHEMBL5120753, “Isolation and biological activity of azocine and azocane alkaloids” (Bioorg Med Chem, 2022).
